Laboratory results as given in US12637437B2, “Herbicidal compounds” (SYNGENTA CROP PROTECTION AG, priority 2021, dated 2026).

Key:
Type in all cases: in vivo
[1] = system: Amaranthus retoflexus (AMARE); assay: Post-emergence herbicidal glasshouse test, AMARE; set-up: dose or concentration left out as unconfirmed; settings: evaluated after 13 days, five-point scale
Method: (§1) Seeds of a variety of test species are sown in standard soil in pots (Lolium perenne (LOLPE), Amaranthus retoflexus (AMARE), Abutilon theophrasti (ABUTH), Setaria faberi (SETFA), Echinochloa crus-galli (ECHCG), Ipomoea hederacea (IPOHE)). After cultivation for one day (pre-emergence) or after 8 days cultivation (post-emergence) under controlled conditions in a glasshouse (at 24/16° C., day/night; 14 hours light; 65% humidity), the plants are sprayed with an aqueous spray solution derived from the formulation of the technical active ingredient in acetone/water (50:50) solution containing 0.5% Tween 20 (polyoxyethelyene sorbitan monolaurate, CAS RN 9005-64-5). Compounds are applied at 125 g/h unless otherwise indicated. The test plants are then grown in a glasshouse under controlled conditions in a glasshouse (at 24/16° C., day/night; 14 hours light; 65% humidity) and watered twice daily. After 13 days for pre and post-emergence, the test is evaluated for the percentage damage caused to the plant. The biological activities are shown in the following table on a five-point scale (5=80-100%; 4=60-79%; 3=40-59%; 2=20-39%; 1=0-19%). “—” denotes not tested on this species or data not captured.

Setaria faberi (SETFA) [2] = assay: Post-emergence herbicidal glasshouse test, SETFA; settings: 125 g/h, evaluated after 13 days, five-point scale
Method: as §1

[3] = system: Echinochloa crus-galli (ECHCG); assay: Post-emergence herbicidal glasshouse test, ECHCG; settings: 125 g/h, evaluated after 13 days, five-point scale
Method: as §1

[4] = system: Ipomoea hederacea (IPOHE); assay: Post-emergence herbicidal glasshouse test, IPOHE; settings: 125 g/h, evaluated after 13 days, five-point scale
Method: as §1

[5] = system: Amaranthus retoflexus (AMARE); assay: Pre-emergence herbicidal glasshouse test, AMARE; settings: 125 g/h, evaluated after 13 days, five-point scale
Method: as §1

Setaria faberi (SETFA) [6] = assay: Pre-emergence herbicidal glasshouse test, SETFA; settings: 125 g/h, evaluated after 13 days, five-point scale
Method: as §1

[7] = system: Echinochloa crus-galli (ECHCG); assay: Pre-emergence herbicidal glasshouse test, ECHCG; settings: 125 g/h, evaluated after 13 days, five-point scale
Method: as §1

[8] = system: Ipomoea hederacea (IPOHE); assay: Pre-emergence herbicidal glasshouse test, IPOHE; settings: 125 g/h, evaluated after 13 days, five-point scale
Method: as §1

Compound | percentage damage caused to the plant, POST Application AMARE [1] | percentage damage caused to the plant, POST Application SETFA (Setaria faberi (SETFA) [2]) | percentage damage caused to the plant, POST Application ECHCG [3] | percentage damage caused to the plant, POST Application IPOHE [4] | percentage damage caused to the plant, PRE Application AMARE [5] | percentage damage caused to the plant, PRE Application SETFA (Setaria faberi (SETFA) [6]) | percentage damage caused to the plant, PRE Application ECHCG [7] | percentage damage caused to the plant, PRE Application IPOHE [8]
Cn1nnnc1NC(=O)c1ccc(OC(F)(F)F)c(NC(=O)OCC(F)F)c1Cl [Compound 1.011] | 4 (4=60-79%) | 5 (5=80-100%) | 5 (5=80-100%) | 4 (4=60-79%) | 5 (5=80-100%) | 5 (5=80-100%) | 5 (5=80-100%) | 4 (4=60-79%)
Cn1nnnc1NC(=O)c1ccc(OC(F)(F)F)c(NC(=O)OCCC#N)c1Cl [Compound 1.012] | 5 (5=80-100%) | 5 (5=80-100%) | 5 (5=80-100%) | 5 (5=80-100%) | 5 (5=80-100%) | 5 (5=80-100%) | 5 (5=80-100%) | 4 (4=60-79%)
Cn1nnnc1NC(=O)c1ccc(OC(F)(F)F)c(NC(=O)OCCS(C)(=O)=O)c1Cl [Compound 1.013] | 4 (4=60-79%) | 5 (5=80-100%) | 5 (5=80-100%) | 2 (2=20-39%) | 5 (5=80-100%) | 2 (2=20-39%) | 2 (2=20-39%) | 2 (2=20-39%)
CCCOC(=O)Nc1c(OC(F)(F)F)ccc(C(=O)Nc2nnnn2C)c1Cl [Compound 1.014] | 4 (4=60-79%) | 5 (5=80-100%) | 5 (5=80-100%) | 4 (4=60-79%) | 3 (3=40-59%) | 4 (4=60-79%) | 4 (4=60-79%) | 2 (2=20-39%)
Cn1nnnc1NC(=O)c1ccc(OC(F)F)c(NC(=O)OCC(F)F)c1Cl [Compound 1.015] | 5 (5=80-100%) | 5 (5=80-100%) | 5 (5=80-100%) | 4 (4=60-79%) | 5 (5=80-100%) | 5 (5=80-100%) | 5 (5=80-100%) | 3 (3=40-59%)
CCCOC(=O)Nc1c(OC(F)F)ccc(C(=O)Nc2nnnn2C)c1Cl [Compound 1.016] | 4 (4=60-79%) | 5 (5=80-100%) | 5 (5=80-100%) | 3 (3=40-59%) | 5 (5=80-100%) | 3 (3=40-59%) | 4 (4=60-79%) | 2 (2=20-39%)
CC(C)OC(=O)Nc1c(OC(F)F)ccc(C(=O)Nc2nnnn2C)c1Cl [Compound 1.017] | 5 (5=80-100%) | 5 (5=80-100%) | 5 (5=80-100%) | 5 (5=80-100%) | 5 (5=80-100%) | 5 (5=80-100%) | 5 (5=80-100%) | 4 (4=60-79%)
COCCOC(=O)Nc1c(OC(F)F)ccc(C(=O)Nc2nnnn2C)c1Cl [Compound 1.018] | 4 (4=60-79%) | 5 (5=80-100%) | 5 (5=80-100%) | 4 (4=60-79%) | 4 (4=60-79%) | 3 (3=40-59%) | 4 (4=60-79%) | 2 (2=20-39%)
